Reference: patent US20250000865A1, “COMPOUND FOR REDUCING URIC ACID LEVELS” (NEWSOARA BIOPHARMA CO., LTD., priority 2021, published 2025)

System: healthy subjects
Assay: Phase I clinical trial, multiple-dose groups (once a day, 7 consecutive days): uric acid index before and after treatment
Format: in vivo, human
Settings: for Uric acid (UA) Mean (standard deviation) / Uric acid (UA) Median / Uric acid (UA) Minimum value / Uric acid (UA) maximum value / Uric acid (UA) Changes over baseline at last visit (on day 14), Mean (standard deviation) / Uric acid (UA) Changes over baseline at last visit (on day 14), Median / Uric acid (UA) Changes over baseline at last visit (on day 14), Minimum value / Uric acid (UA) Changes over baseline at last visit (on day 14), maximum value / Uric acid (UA) Changes over baseline on day 2, Mean (standard deviation) / Uric acid (UA) Changes over baseline on day 2, Median / Uric acid (UA) Changes over baseline on day 2, Minimum value / Uric acid (UA) Changes over baseline on day 2, maximum value / Uric acid (UA) Changes over baseline on day 11, Mean (standard deviation) / Uric acid (UA) Changes over baseline on day 11, Median / Uric acid (UA) Changes over baseline on day 11, Minimum value / Uric acid (UA) Changes over baseline on day 11, maximum value / Uric acid (UA) Changes over baseline on days 4-6, Mean (standard deviation) / Uric acid (UA) Changes over baseline on days 4-6, Median / Uric acid (UA) Changes over baseline on days 4-6, Minimum value / Uric acid (UA) Changes over baseline on days 4-6, maximum value: N = 9
Method: The changes of uric acid levels in subjects in single-dose and multi-dose groups of Compound I are shown in FIG. 1A (single dose of 6 mg and single dose of 10 mg), FIG. 1B (single dose of 20 mg and single dose of 30 mg), and FIG. 2 (multi-dose of 10 mg and multi-dose of 20 mg). The corresponding results are also shown in Tables 1.1, 1.2, 1.3, and 2.1, and tables 2.2, 2.3, and 2.4.

[1] = Baseline, multiple dose 10 mg once a day 7 days
[2] = Baseline, multiple dose 20 mg once a day 7 days
[3] = Day 2, multiple dose 10 mg once a day 7 days
[4] = Day 2, multiple dose 20 mg once a day 7 days
[5] = Day 11, multiple dose 10 mg once a day 7 days
[6] = Day 11, multiple dose 20 mg once a day 7 days
[7] = Days 4-6, multiple dose 10 mg once a day 7 days
[8] = Days 4-6, multiple dose 20 mg once a day 7 days
[9] = Last visit (day 14), multiple dose 10 mg once a day 7 days
[10] = Last visit (day 14), multiple dose 20 mg once a day 7 days
[11] = multiple dose 10 mg once a day 7 days
[12] = multiple dose 20 mg once a day 7 days

## COc1cccc2c1ncc1c(=O)n(C3CCC(C(=O)O)CC3)c(=O)n(-c3cccc(Cl)c3)c12 (centres unmarked) [Compound I, 4-[1-(3-chlorophenyl)-7-methoxy-2,4-dioxo-pyrimido[5,4-c]quinolin-3-yl]cyclohexanecarboxylic acid]
[1]
  Uric acid (UA) Mean (standard deviation): 314.4 (84.59) μmol/L
  Uric acid (UA) Median: 290.0 µmol/L
  Uric acid (UA) Minimum value: 215 µmol/L
  Uric acid (UA) maximum value: 452 µmol/L
[2]
  Uric acid (UA) Mean (standard deviation): 337.2 (50.38) μmol/L
  Uric acid (UA) Median: 349.0 µmol/L
  Uric acid (UA) Minimum value: 259 µmol/L
  Uric acid (UA) maximum value: 400 µmol/L
[3]
  Uric acid (UA) Mean (standard deviation): 254.9 (74.41) μmol/L
  Uric acid (UA) Median: 248.0 µmol/L
  Uric acid (UA) Minimum value: 155 µmol/L
  Uric acid (UA) maximum value: 397 µmol/L
[4]
  Uric acid (UA) Mean (standard deviation): 221.6 (63.82) μmol/L
  Uric acid (UA) Median: 216.0 µmol/L
  Uric acid (UA) Minimum value: 142 µmol/L
  Uric acid (UA) maximum value: 373 µmol/L
[5]
  Uric acid (UA) Mean (standard deviation): 325.1 (67.57) μmol/L
  Uric acid (UA) Median: 314.0 µmol/L
  Uric acid (UA) Minimum value: 222 µmol/L
  Uric acid (UA) maximum value: 439 µmol/L
[6]
  Uric acid (UA) Mean (standard deviation): 341.8 (58.10) μmol/L
  Uric acid (UA) Median: 323.0 µmol/L
  Uric acid (UA) Minimum value: 262 µmol/L
  Uric acid (UA) maximum value: 460 µmol/L
[7]
  Uric acid (UA) Mean (standard deviation): 201.8 (58.87) μmol/L
  Uric acid (UA) Median: 204.0 µmol/L
  Uric acid (UA) Minimum value: 119 µmol/L
  Uric acid (UA) maximum value: 307 µmol/L
[8]
  Uric acid (UA) Mean (standard deviation): 158.0 (51.31) μmol/L
  Uric acid (UA) Median: 140.0 µmol/L
  Uric acid (UA) Minimum value: 105 µmol/L
  Uric acid (UA) maximum value: 267 µmol/L
[9]
  Uric acid (UA) Mean (standard deviation): 326.9 (74.58) μmol/L
  Uric acid (UA) Median: 337.0 µmol/L
  Uric acid (UA) Minimum value: 219 µmol/L
  Uric acid (UA) maximum value: 422 µmol/L
[10]
  Uric acid (UA) Mean (standard deviation): 378.4 (37.55) μmol/L
  Uric acid (UA) Median: 376.0 µmol/L
  Uric acid (UA) Minimum value: 309 µmol/L
  Uric acid (UA) maximum value: 440 µmol/L
multi-dose groups
  uric acid level on the following days (days 4-6): continuous decrease
multi-dose groups, certain dose dependence
  uric acid level the next day after administration: decreases obviously
[11]
  Uric acid (UA) Changes over baseline at last visit (on day 14), Mean (standard deviation): 12.4 (37.22) μmol/L
  Uric acid (UA) Changes over baseline at last visit (on day 14), Median: 6.0 µmol/L
  Uric acid (UA) Changes over baseline at last visit (on day 14), Minimum value: -45 µmol/L
  Uric acid (UA) Changes over baseline at last visit (on day 14), maximum value: 58 µmol/L
  Uric acid (UA) Changes over baseline on day 2, Mean (standard deviation): −59.6 (40.77) μmol/L
  Uric acid (UA) Changes over baseline on day 2, Median: -50.0 µmol/L
  Uric acid (UA) Changes over baseline on day 2, Minimum value: -135 µmol/L
  Uric acid (UA) Changes over baseline on day 2, maximum value: 6 µmol/L
  Uric acid (UA) Changes over baseline on day 11, Mean (standard deviation): 10.7 (31.86) μmol/L
  Uric acid (UA) Changes over baseline on day 11, Median: 15.0 µmol/L
  Uric acid (UA) Changes over baseline on day 11, Minimum value: -52 µmol/L
  Uric acid (UA) Changes over baseline on day 11, maximum value: 60 µmol/L
  Uric acid (UA) Changes over baseline on days 4-6, Mean (standard deviation): −112.7 (57.68) μmol/L
  Uric acid (UA) Changes over baseline on days 4-6, Median: -118.0 µmol/L
  Uric acid (UA) Changes over baseline on days 4-6, Minimum value: -234 µmol/L
  Uric acid (UA) Changes over baseline on days 4-6, maximum value: -35 µmol/L
[12]
  Uric acid (UA) Changes over baseline at last visit (on day 14), Mean (standard deviation): 41.2 (44.32) μmol/L
  Uric acid (UA) Changes over baseline at last visit (on day 14), Median: 40.0 µmol/L
  Uric acid (UA) Changes over baseline at last visit (on day 14), Minimum value: -11 µmol/L
  Uric acid (UA) Changes over baseline at last visit (on day 14), maximum value: 135 µmol/L
  Uric acid (UA) Changes over baseline on day 2, Mean (standard deviation): −115.7 (55.40) μmol/L
  Uric acid (UA) Changes over baseline on day 2, Median: -142.0 µmol/L
  Uric acid (UA) Changes over baseline on day 2, Minimum value: -184 µmol/L
  Uric acid (UA) Changes over baseline on day 2, maximum value: -26 µmol/L
  Uric acid (UA) Changes over baseline on day 11, Mean (standard deviation): 4.6 (43.38) μmol/L
  Uric acid (UA) Changes over baseline on day 11, Median: 2.0 µmol/L
  Uric acid (UA) Changes over baseline on day 11, Minimum value: -52 µmol/L
  Uric acid (UA) Changes over baseline on day 11, maximum value: 67 µmol/L
  Uric acid (UA) Changes over baseline on days 4-6, Mean (standard deviation): −179.2 (54.55) μmol/L
  Uric acid (UA) Changes over baseline on days 4-6, Median: -175.0 µmol/L
  Uric acid (UA) Changes over baseline on days 4-6, Minimum value: -260 µmol/L
  Uric acid (UA) Changes over baseline on days 4-6, maximum value: -108 µmol/L
